O=C(O)c1ccc(CO)cc1
solubility (mole fraction) (in ethanol, 283.15 K): 0.0289
solubility (mole fraction) (in ethanol, 288.15 K): 0.0325
solubility (mole fraction) (in ethanol, 293.15 K): 0.0367
solubility (mole fraction) (in ethanol, 298.15 K): 0.0414
solubility (mole fraction) (in ethanol, 303.15 K): 0.0468
solubility (mole fraction) (in ethanol, 308.15 K): 0.0529
solubility (mole fraction) (in ethanol, 313.15 K): 0.0599
solubility (mole fraction) (in ethanol, 318.15 K): 0.0678
solubility (mole fraction) (in ethanol, 323.15 K): 0.0768
solubility (mole fraction) (in ethyl acetate, 283.15 K): 0.00475
solubility (mole fraction) (in ethyl acetate, 288.15 K): 0.00528
solubility (mole fraction) (in ethyl acetate, 293.15 K): 0.00653
solubility (mole fraction) (in ethyl acetate, 298.15 K): 0.00797
solubility (mole fraction) (in ethyl acetate, 303.15 K): 0.00919
solubility (mole fraction) (in ethyl acetate, 308.15 K): 0.0109
solubility (mole fraction) (in ethyl acetate, 313.15 K): 0.0133
solubility (mole fraction) (in ethyl acetate, 318.15 K): 0.0161
solubility (mole fraction) (in ethyl acetate, 323.15 K): 0.0199
solubility (mole fraction) (in ethyl formate, 283.15 K): 0.00168
solubility (mole fraction) (in ethyl formate, 288.15 K): 0.00259
solubility (mole fraction) (in ethyl formate, 293.15 K): 0.00319
solubility (mole fraction) (in ethyl formate, 298.15 K): 0.00396
solubility (mole fraction) (in ethyl formate, 303.15 K): 0.00431
solubility (mole fraction) (in ethyl formate, 308.15 K): 0.00535
solubility (mole fraction) (in ethyl formate, 313.15 K): 0.00704
solubility (mole fraction) (in ethyl formate, 318.15 K): 0.00773
solubility (mole fraction) (in ethyl formate, 323.15 K): 0.00889
solubility (mole fraction) (in isopropanol, 283.15 K): 0.0268
solubility (mole fraction) (in isopropanol, 288.15 K): 0.0294
solubility (mole fraction) (in isopropanol, 293.15 K): 0.0337
solubility (mole fraction) (in isopropanol, 298.15 K): 0.0391
solubility (mole fraction) (in isopropanol, 303.15 K): 0.044
solubility (mole fraction) (in isopropanol, 308.15 K): 0.0523
solubility (mole fraction) (in isopropanol, 313.15 K): 0.0602
solubility (mole fraction) (in isopropanol, 318.15 K): 0.0697
solubility (mole fraction) (in isopropanol, 323.15 K): 0.0826
solubility (mole fraction) (in isopropyl acetate, 283.15 K): 0.00324
solubility (mole fraction) (in isopropyl acetate, 288.15 K): 0.00444
solubility (mole fraction) (in isopropyl acetate, 293.15 K): 0.00481
solubility (mole fraction) (in isopropyl acetate, 298.15 K): 0.00599
solubility (mole fraction) (in isopropyl acetate, 303.15 K): 0.00827
solubility (mole fraction) (in isopropyl acetate, 308.15 K): 0.00969
solubility (mole fraction) (in isopropyl acetate, 313.15 K): 0.0113
solubility (mole fraction) (in isopropyl acetate, 318.15 K): 0.0127
solubility (mole fraction) (in isopropyl acetate, 323.15 K): 0.0155
solubility (mole fraction) (in methanol, 283.15 K): 0.0282
solubility (mole fraction) (in methanol, 288.15 K): 0.0323
solubility (mole fraction) (in methanol, 293.15 K): 0.0361
solubility (mole fraction) (in methanol, 298.15 K): 0.0414
solubility (mole fraction) (in methanol, 303.15 K): 0.0473
solubility (mole fraction) (in methanol, 308.15 K): 0.0535
solubility (mole fraction) (in methanol, 313.15 K): 0.0608
solubility (mole fraction) (in methanol, 318.15 K): 0.0682
solubility (mole fraction) (in methanol, 323.15 K): 0.078
solubility (mole fraction) (in n-butyl acetate, 283.15 K): 0.00341
solubility (mole fraction) (in n-butyl acetate, 288.15 K): 0.00463
solubility (mole fraction) (in n-butyl acetate, 293.15 K): 0.00508
solubility (mole fraction) (in n-butyl acetate, 298.15 K): 0.00622
solubility (mole fraction) (in n-butyl acetate, 303.15 K): 0.00854
solubility (mole fraction) (in n-butyl acetate, 308.15 K): 0.01
solubility (mole fraction) (in n-butyl acetate, 313.15 K): 0.0117
solubility (mole fraction) (in n-butyl acetate, 318.15 K): 0.0132
solubility (mole fraction) (in n-butyl acetate, 323.15 K): 0.0158
solubility (mole fraction) (in n-propanol, 283.15 K): 0.0236
solubility (mole fraction) (in n-propanol, 288.15 K): 0.026
solubility (mole fraction) (in n-propanol, 293.15 K): 0.0298
solubility (mole fraction) (in n-propanol, 298.15 K): 0.0345
solubility (mole fraction) (in n-propanol, 303.15 K): 0.0367
solubility (mole fraction) (in n-propanol, 308.15 K): 0.0446
solubility (mole fraction) (in n-propanol, 313.15 K): 0.0516
solubility (mole fraction) (in n-propanol, 318.15 K): 0.0591
solubility (mole fraction) (in n-propanol, 323.15 K): 0.0705
solubility (mole fraction) (in water, 283.15 K): 0.000244
solubility (mole fraction) (in water, 288.15 K): 0.000254
solubility (mole fraction) (in water, 293.15 K): 0.0003
solubility (mole fraction) (in water, 298.15 K): 0.00039
solubility (mole fraction) (in water, 303.15 K): 0.000532
solubility (mole fraction) (in water, 308.15 K): 0.000641
solubility (mole fraction) (in water, 313.15 K): 0.000816
solubility (mole fraction) (in water, 318.15 K): 0.000993
solubility (mole fraction) (in water, 323.15 K): 0.00128
